From US12473264B2, “Inhibitors of erythrocyte band 3 tyrosine phosphorylation and uses thereof” (Purdue Research Foundation, priority 2019, dated 2025) come the findings set out here.

For test [1], the target named is Lyn A (Homo sapiens, UniProt P07948). Briefly: ADP-Glo kinase assay, Lyn A. The class given is biochemical. To be noted: FIG. 6B. On the procedure: (§1) Syk kinase inhibition assays were run on 96-well plates using the ADP-Glo assay kit according to manufacturer's specifications. All kinase reactions were run using Kinase Assay Buffer III supplemented with DTT and MnCl2 as required by the kinase of interest to generate kinase reaction buffer. Stock solutions of kinase inhibitor in DMSO were diluted into 2× kinase reaction buffer and the final concentration of DMSO in each kinase reaction was held below 1%. The total volume of each kinase reaction was 25 μL apportioned as: 5 μL 2× kinase reaction buffer or diluted kinase inhibitor, 5 μL 1 mg/mL (stock) kinase substrate, 10 μL kinase in kinase reaction buffer, and 5 μL 250 μM ATP diluted into kinase reaction buffer. Kinase inhibitors were incubated with kinase and substrate prior to addition of ATP for 20 min at room temperature (RT). After addition of ATP to the wells, the plate was incubated at 37° C. for 30-60 minutes depending on the kinase used. After incubation the plate was cooled to RT for 5 minutes prior to addition of 25 μL ADP-Glo reagent and incubation on a shaker for 40 minutes. […] After 30 min, the luminescence was recorded using a Neo2 plate reader and 1 sec integration of the signal. The background signal was subtracted from all readings and the signal was normalized to the maximum signal obtained in the absence of inhibitor. […]

Test [2] concerns the target Syk (Homo sapiens, UniProt P43405). Kind of test: ADP-Glo kinase inhibition assay, Syk. It is filed as biochemical. On the procedure: Syk kinase inhibition assays were run on 96-well plates using the ADP-Glo assay kit according to manufacturer's specifications. All kinase reactions were run using Kinase Assay Buffer III supplemented with DTT and MnCl2 as required by the kinase of interest to generate kinase reaction buffer. Stock solutions of kinase inhibitor in DMSO were diluted into 2× kinase reaction buffer and the final concentration of DMSO in each kinase reaction was held below 1%. […] Kinase inhibitors were incubated with kinase and substrate prior to addition of ATP for 20 min at room temperature (RT). After addition of ATP to the wells, the plate was incubated at 37° C. for 30-60 minutes depending on the kinase used. After incubation the plate was cooled to RT for 5 minutes prior to addition of 25 μL ADP-Glo reagent and incubation on a shaker for 40 minutes. After 40 minutes, 50 μL Kinase Detection reagent were added and the plate was protected from light while incubated on a shaker. After 30 min, the luminescence was recorded using a Neo2 plate reader and 1 sec integration of the signal. The background signal was subtracted from all readings and the signal was normalized to the maximum signal obtained in the absence of inhibitor. Data were plotted and inhibition curves fit using Graphpad software.
(In general: ADP-Glo first removes unused ATP, then detects ADP through luciferase.)

In test [3] the target is SRC (Homo sapiens, UniProt P12931). Briefly: ADP-Glo kinase assay, SRC. It is filed as biochemical. The note with it: FIG. 6B. The procedure:
as §1

In test [4] the target is T1, ZAP70 (Homo sapiens, UniProt P43403).
T1 sequence (P43403 1-619): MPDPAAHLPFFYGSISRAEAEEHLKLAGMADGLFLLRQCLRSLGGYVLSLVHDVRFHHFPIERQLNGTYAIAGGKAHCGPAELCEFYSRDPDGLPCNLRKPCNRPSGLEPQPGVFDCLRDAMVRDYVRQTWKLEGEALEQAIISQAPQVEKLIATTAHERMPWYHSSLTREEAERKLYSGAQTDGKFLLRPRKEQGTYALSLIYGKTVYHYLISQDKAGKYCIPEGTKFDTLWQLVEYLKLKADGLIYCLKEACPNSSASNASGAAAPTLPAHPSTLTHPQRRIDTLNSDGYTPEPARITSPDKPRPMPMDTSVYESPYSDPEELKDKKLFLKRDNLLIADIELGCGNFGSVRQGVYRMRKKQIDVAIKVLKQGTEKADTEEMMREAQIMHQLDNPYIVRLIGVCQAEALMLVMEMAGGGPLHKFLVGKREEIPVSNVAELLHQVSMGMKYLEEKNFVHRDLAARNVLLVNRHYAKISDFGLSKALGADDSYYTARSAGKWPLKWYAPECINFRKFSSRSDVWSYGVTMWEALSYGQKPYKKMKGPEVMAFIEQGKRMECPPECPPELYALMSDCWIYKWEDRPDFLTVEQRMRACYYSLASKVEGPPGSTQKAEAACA
Briefly: ADP-Glo kinase assay, ZAP70. The class given is biochemical. The note with it: FIG. 6B. The procedure:
as §1

Test [5] has as its target EGFR (Homo sapiens, UniProt P00533). Kind of test: ADP-Glo kinase assay, EGFR. It is filed as biochemical. On the procedure: as §1
Test [6] has as its system phosphorylated Band 3. Kind of test: Band 3 tyrosine phosphorylation in SCD RBC lysates (Western blot). The note with it: 1 μM S701, SCD RBC lysates, anti-pY Western blot. It is filed as cell-based, human. The procedure: (§2) RBC ghosts were then prepared by mixing 150 μL of packed RBCs with 1500 μL of ice-cold ghost buffer (5 mM Na2HPO4, 1 mM EDTA, pH 8.0, containing 1 mM phenylmethylsulfonyl fluoride (PMSF) and 1% phosphatase cocktail inhibitors 2 and 3) and allowed to sit on ice for 30 min. Samples were centrifuged at 13000 rpm for 15 min at 4° C. and supernatants were removed. Ghost pellets were washed an additional 3×, after which 10 μL was removed for determination of protein concentration using Pierce™ Rapid Gold BCA Protein Assay (Thermo Fisher Scientific, A53226). Residual ghosts were solubilized in 4× Laemmli buffer (Bio-Rad) at a concentration of 1 […] and warmed to 30° C. for 30 min prior to storage at −20° C. until use.
(§3) Band 3 tyrosine phosphorylation was quantitated by loading 30 μL of each thawed sample onto a 10% SDS-PAGE gel and separating at 90, 120 and 150 V for 30, 45 and 20 minutes, respectively. Proteins were then transferred to a nitrocellulose membrane at 100 V for 2 hours, after which membranes were immunostained with anti-phosphotyrosine (1:1000, Cell Signaling, Inc.) or anti-actin (1:20000) antibodies dissolved in TBST (25 mM Tris, 140 mM NaCl, 3 mM KCl, 0.05% v/v Tween-20) containing 5% w/v milk. […] Band 3 tyrosine phosphorylation intensity/densitometry was quantitated using image J software.
For orientation: Immunoblotting shows a protein as a band on a membrane.

The subject of test [7] is SCD patient RBCs. Kind of test: RBC velocity through microfluidic capillary. The class given is cell-based, human. The note with it: concentrations as low as 50 nM, various levels of oxygenation. On the procedure:
Microfluidic capillary devices were fabricated with polydimethylsiloxane (PDMS) using standard soft photolithography techniques. Capillaries were constructed with a straight channel (w=75 μm, h=6.52 μm) containing a constriction (wc=5 μm and h=6.52 μm). To control the oxygen level inside the channel, the microfluidic device was submerged in a customized glass chamber filled with sodium sulfite solution (0M, 0.01M, 0.1M or 1M) (Sigma-Aldrich). The oxygen level was calibrated using 25 μM of tris(2,2′-bipyridyl)dichlororuthenium(II) hexahydrate (an O2 indicator, Sigma-Aldrich) then converted into a PO2 value using the Stern-Volmer equation, I0/I=1+PO2×Kq, where I^0 is the maximum fluorescence intensity and Kq is the quenching constant. The calibration results are obtained.
Sickle cell blood samples were obtained from five patients (n=5, age 4-9 years old) and RBCs were isolated by centrifugation. […] For quantitation of RBC velocity in a microfluidic capillary, the RBC suspension was injected into the capillary at a constant pressure of 1.6 psi, and the velocity of the RBCs in the constriction was recorded using a high-speed video camera (Phantom Miro M120, 1900 frames per second) mounted on an inverted microscope (Leica DMI 6000B). Data were analyzed using Phantom Camera Control software.

Test [8] deals with SCD patient RBCs. Kind of test: Free plasma hemoglobin in SCD patient samples. The class given is cell-based, human. To be noted: 1 μM S701, SCD patient samples. On the procedure:
(§4) For evaluation of the effect of tyrosine kinase inhibitors on release of RBC-derived MPs from sickle cells suspended at 30% Hct in PBS-G, 500 μL washed RBCs were treated for 1 hour with the desired concentration of tyrosine kinase inhibitor or vehicle control, and then shaken at 1400 RPM for 4 h. Newly released microparticles were then separated from residual RBCs by centrifuging at 800 rcf for 10 minutes, collecting the supernatant, and analyzing the supernatant for RBC-derived MPs as described above.
(§5) Cayman's hemoglobin colorimetric assay was used to quantitate the level of cell-free plasma hemoglobin in both patient plasma samples and in the above kinase-treated RBC supernatant samples according to the manufacturer's instruction.

The test system of test [9] is Syk phosphorylation of Band 3. Kind of test: Band 3 tyrosine phosphorylation induced in healthy donor RBCs by OV (Western blot). The class given is cell-based. The note with it: Homo sapiens; healthy donor RBCs treated with OV; read-out: in vitro IC50 against Syk phosphorylation of Band 3. On the procedure:
as §2, §3

In test [10] the test system is SCD patient RBCs. Kind of test: Erythrocyte-derived microparticle release in SCD patient samples. The class given is cell-based, human. To be noted: SCD patient samples incubated with 1 μM S701 (untreated SCD 18, healthy seven). The procedure: Plasma from sickle cell samples (see above) was centrifuged 2× at 2500 rcf for 15 minutes to remove platelets and 100 μL of supernatant containing MPs was incubated for 20 minutes on ice with 0.5 μL of BV421 mouse-anti-human 235a antibody (anti-glycophorin A; BD Biosciences #562938). Samples were diluted with 1000 μL of stain buffer (BD Biosciences #554656), transferred to BD Trucount™ tubes (BD Biosciences #340334) and analyzed on an Attune NxT Flow Cytometer by utilizing violet fluorescent trigger channel. The absolute number of RBC-derived microparticles was then calculated using the following formula,
as §4

Test [11] deals with healthy donor human RBCs. Briefly: Hemolysis (Hb release) induced by phosphatase inhibitors in healthy donor human RBCs. It is filed as cell-based.
Source text: as §5

Like-named read-outs stand apart in the source and are kept apart here.

Chain of EGFR (P00533 25-1210): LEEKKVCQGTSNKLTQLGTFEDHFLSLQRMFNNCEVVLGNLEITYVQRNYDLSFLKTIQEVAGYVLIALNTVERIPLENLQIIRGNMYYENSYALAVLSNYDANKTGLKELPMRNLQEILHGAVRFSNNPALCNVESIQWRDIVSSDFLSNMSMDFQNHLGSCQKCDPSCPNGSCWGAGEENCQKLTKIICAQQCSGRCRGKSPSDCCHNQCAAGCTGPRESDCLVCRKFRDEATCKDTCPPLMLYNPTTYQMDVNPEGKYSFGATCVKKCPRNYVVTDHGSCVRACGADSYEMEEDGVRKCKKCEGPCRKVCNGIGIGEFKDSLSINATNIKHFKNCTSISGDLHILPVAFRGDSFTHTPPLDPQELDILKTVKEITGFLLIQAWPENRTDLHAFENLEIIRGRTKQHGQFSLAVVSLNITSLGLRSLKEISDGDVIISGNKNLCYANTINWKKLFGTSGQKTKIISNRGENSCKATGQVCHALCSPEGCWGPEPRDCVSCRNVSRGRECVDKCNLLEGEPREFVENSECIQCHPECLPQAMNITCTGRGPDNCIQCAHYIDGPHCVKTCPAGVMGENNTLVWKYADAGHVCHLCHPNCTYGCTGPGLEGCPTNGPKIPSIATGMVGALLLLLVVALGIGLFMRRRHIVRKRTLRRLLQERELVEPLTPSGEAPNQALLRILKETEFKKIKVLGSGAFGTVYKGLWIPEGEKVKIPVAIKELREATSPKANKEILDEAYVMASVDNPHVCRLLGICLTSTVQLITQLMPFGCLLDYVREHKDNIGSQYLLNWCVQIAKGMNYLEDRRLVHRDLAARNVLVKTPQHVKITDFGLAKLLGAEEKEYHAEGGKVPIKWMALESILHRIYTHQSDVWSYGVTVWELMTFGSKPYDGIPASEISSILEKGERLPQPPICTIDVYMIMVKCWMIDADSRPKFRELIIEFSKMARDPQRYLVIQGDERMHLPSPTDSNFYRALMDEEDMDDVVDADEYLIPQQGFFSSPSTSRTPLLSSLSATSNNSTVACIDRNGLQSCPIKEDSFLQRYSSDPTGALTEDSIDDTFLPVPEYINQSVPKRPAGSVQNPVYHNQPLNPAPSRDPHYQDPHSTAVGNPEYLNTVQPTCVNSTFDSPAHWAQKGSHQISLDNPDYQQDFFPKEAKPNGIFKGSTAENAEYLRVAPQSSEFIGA
Chain of Lyn A (P07948 whole entry): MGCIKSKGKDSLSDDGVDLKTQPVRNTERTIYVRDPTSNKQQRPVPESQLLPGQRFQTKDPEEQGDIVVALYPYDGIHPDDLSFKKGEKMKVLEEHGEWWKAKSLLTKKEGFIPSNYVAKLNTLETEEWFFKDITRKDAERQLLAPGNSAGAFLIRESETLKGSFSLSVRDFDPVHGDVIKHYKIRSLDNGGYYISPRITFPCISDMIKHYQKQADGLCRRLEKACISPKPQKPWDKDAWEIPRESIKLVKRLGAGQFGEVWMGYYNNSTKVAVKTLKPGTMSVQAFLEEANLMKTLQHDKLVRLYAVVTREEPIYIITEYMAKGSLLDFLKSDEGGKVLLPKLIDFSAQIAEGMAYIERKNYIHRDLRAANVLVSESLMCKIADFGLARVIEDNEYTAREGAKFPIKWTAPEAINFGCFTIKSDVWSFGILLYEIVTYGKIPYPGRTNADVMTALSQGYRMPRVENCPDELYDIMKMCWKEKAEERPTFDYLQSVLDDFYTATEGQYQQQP
Chain of SRC (P12931 whole entry): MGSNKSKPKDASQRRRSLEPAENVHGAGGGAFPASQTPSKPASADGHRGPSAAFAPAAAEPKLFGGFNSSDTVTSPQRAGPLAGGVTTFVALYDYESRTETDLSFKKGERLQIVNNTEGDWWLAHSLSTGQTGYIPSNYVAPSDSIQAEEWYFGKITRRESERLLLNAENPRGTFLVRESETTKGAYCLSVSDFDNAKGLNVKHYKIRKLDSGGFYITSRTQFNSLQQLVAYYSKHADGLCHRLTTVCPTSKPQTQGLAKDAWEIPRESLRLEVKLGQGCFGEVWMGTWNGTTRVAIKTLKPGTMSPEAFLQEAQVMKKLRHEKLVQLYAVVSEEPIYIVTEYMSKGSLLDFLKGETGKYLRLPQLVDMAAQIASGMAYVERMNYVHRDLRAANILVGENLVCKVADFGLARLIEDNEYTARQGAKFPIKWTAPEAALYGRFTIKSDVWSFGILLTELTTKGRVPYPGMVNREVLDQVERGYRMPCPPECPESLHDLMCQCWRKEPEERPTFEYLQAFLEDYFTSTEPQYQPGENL

`COc1ccc(Nc2nc(Nc3cccc4[nH]ccc34)ncc2F)c(-c2ccc(O)c(O)c2)c1` [S602, 2′-((2-((1H-indol-4-yl)amino)-5-fluoropyrimidin-4-yl)amino)-5′-methoxy-[1,1′-biphenyl]-3,4-diol]: in [1], the “inhibitory effect on Lyn A” value is reported as “very significantly higher concentrations to have an impact”. In addition, the “Syk inhibition compared to S701” value in test [2] (FIG. 6B) is listed as “even better IC50 value for inhibiting Syk as compared to S701”. Further, the “inhibitory effect on SRC” value in test [3] is given as “very significantly higher concentrations to have an impact”. In addition, the “inhibitory effect on ZAP 70” value in [4] was “very significantly higher concentrations to have an impact”. Also, in [5], the “inhibitory effect on EGFR” value is “very significantly higher concentrations to have an impact”.
By IC50 is commonly meant the concentration needed to halve the response being measured. In the case of `COc1cc(Nc2ncc(F)c(NC(=O)c3cc(O)c(O)c(O)c3)n2)cc(OC)c1OC` [S701, N-(5-fluoro-2-((3,4,5-trimethoxyphenyl)amino)pyrimidin-4-yl)-3,4,5-trihydroxybenzamide], the IC50 in [2] (cell-free) is 0.581 µM; in test [9], approximately 5 µM. Further, the “phosphorylated Band 3” value in test [6] is “notable decrease in phosphorylated Band 3”. Moreover, in [7], the “RBC velocity through a 5 μm tube” value is on record as “increased RBC velocity”. Also, in test [8], the “decrease of concentration of free plasma hemoglobin” value is on record as 47%. The “number of MPs released per μL of plasma” value in [10] is listed as “five”. The percent inhibition of hemolysis at 5 µM in [11] (5 μM S701, Diamide, read-out: inhibition of hemolysis, Diamide) amounted to 50%; in test [11] (5 μM S701, Phenylhydrazine, read-out: inhibition of hemolysis, Phenylhydrazine) it was 44%; in test [11] (5 μM S701, phosphatase inhibitor OV, read-out: inhibition of hemolysis, OV), 25%. Besides, the “inhibitory effect on EGFR” value in test [5] is recorded as “has to be in really high concentrations to have any inhibitory effect”.
